Laboratory results from US9745266B2 (THE REGENTS OF THE UNIVERSITY OF COLORADO, A BODY CORPORATE, priority 2013, dated 2017).
In brackets after ≈: the same amount, converted by molar mass. Where two headings read alike, the source gives them in different places.

What was measured:
MRSA ATCC 33592 [1] = test: Minimum resensitizing concentration (MRC), modified broth microdilution; format: cell-based, S. aureus; conditions: MRSA ATCC 33592; meropenem at 4 μg/ml
Experimental: (§1) For these activity tests, AMOXICILLIN® was used in combination with clavulanic acid (a.k.a., AUGMENTIN®), CEFAZOLIN®, and MEROPENEM® (an ultra-broad-spectrum carbapenem). […] To assess activity of each analog as a resistance-modifying agent (RMA), a modified broth microdilution assay was used. Briefly, this involves incubating MRSA with 2-fold serial dilutions of a compound in the presence of each individual antibiotic at its Clinical Laboratory Standards Institutes (CLSI)-defined sensitive concentration. For AMOXICILLIN®/clavulanic acid, this concentration is 4/2 μg/ml (8-fold potentiation), for CEFAZOLIN®, 8 μg/ml (16-fold potentiation) and for MEROPENEM®, 4 μg/ml (4-fold potentiation). Following overnight incubation, plates were examined for bacterial growth, or lack thereof. Compounds were tested at concentrations ranging from 0.5-32 μg/ml. […] The half growth inhibitory concentration (GI50) of each analog was determined by fitting the data using KaleidaGraph (v4.1.1, Synergy Software).
(§2) A modified broth microdilution assay was employed by incubating MRSA (ATCC: BAA-44) with Of1 in 2-fold series dilution in the presence of individual antibiotics at the highest sensitive concentration at 37° C. overnight. […] The MRC values were also determined for another three MRSA strains. […] Furthermore, the mammalian toxicity of Of1 was evaluated using human liver hepatocellular carcinoma HepG2 cell line in CellTiter Glo™ mammalian viability assay (Promega).
(§3) MRC screens were performed as follows: antibiotic MIC values where S. aureus is considered susceptible were determined from the CLSI handbook supplement. Analogs of Of1 were diluted to 5 mg/ml in DMSO. Antibiotic was prepared at twice the intended final concentration in Mueller Hinton Broth (MHB). For amoxicillin/clavulanic acid, the initial concentration was 8/4 μg/ml, for meropenem 8 μg/ml and for cefazolin 16 μg/ml. 50 μl of the antibiotic containing media was added to each well of 96 well plates and 100 μl was added to the top row. 1.28 μl of 5 mg/ml alkaloid solution was added to the top row of each plate to afford a concentration of 64 μg/ml in the top row of each plate and two fold serial dilutions were performed down the columns. Once the plates were prepared, a day culture of MRSA was diluted to OD600 0.002 and 50 μl was added to each well. The final concentration of MRSA was OD600 0.001, the final concentration of amoxicillin/clavulanic acid was 4/2 μg/ml, the final concentration of meropenem was 4 μg/ml the final concentration of cefazolin was 8 μg/ml, and the highest concentration of Of1 analog tested was 32 μg/ml. Plates were incubated overnight at 37° C. with shaking. The MRC value was determined as the concentration of Of1 analog in the presence of antibiotic at which there was no observable overnight growth.

MRSA ATCC BAA-44 [2] = test: as above; format: cell-based, S. aureus; conditions: MRSA ATCC BAA-44
Experimental: as §1, §2, §3

HeLa cells = test: Mammalian cytotoxicity, CellTiter-Glo viability assay; format: cell-based, human; conditions: 24 hours
Experimental: To evaluate the cytotoxicity of Of1 in mammalian cells, a cell viability assay was carried out using CellTiter-Glo luminescent cell viability assay kit (Promega). Human cervixcal adenocarcinoma HeLa cells were seeded on white, cell-culture treated 96-well plates (Corning: 3917) with Dulbecco's modified Eagle's medium (DMEM) supplemented with 10% fetal calf serum (FCS), 1% penicillin/streptomycin, at the densities of 20,000 cells/well. The medium volume for each well was 100 μL. Cells were incubated at 37° C. in 5% CO2/95% air for 16 hours. The medium was removed from each well and replaced with 99 μL of warmed fresh medium. To each well, 1 μL of Of1 analog was added in DMSO to final concentrations of 0.5-32 μg/mL. Each series was performed in triplicate. After incubation at 37° C. for another 24 hours, the plates were equilibrated to room temperature for 30 minutes. 100 μL of CellTiter-Glo reagent (Promega) was added to each well and mixed for 2 minutes on an orbital shaker. The plate was incubated at room temperature for another 10 minutes to stabilize luminescent signal. The luminescence of each sample was recorded in an Envision Multilabel Plate Reader (Perkin Elmer).

MRSA ATCC 33592 [3] = test: MIC, broth microdilution; format: cell-based, S. aureus; conditions: Staphylococcus aureus
Experimental: as §1, with “Activities listed in the table show the ability of the compounds of the invention to resensitize MRSA to a collection of β-lactam antibiotics. For these” for “For these”, “Synergy Software). Compounds 1a-1 are synthesized as shown in Scheme 1 below.” for “Synergy Software).”
The minimal inhibitory concentrations (MICs) of active Of1 analogs were determined by the broth microdilution method detailed in the Clinical and Laboratory Standards Institute handbook. […]

MRSA ATCC BAA-44 [4] = test: MIC in the presence of 20 μM Of1 / alkaloid; format: cell-based, S. aureus; conditions: MRSA ATCC BAA-44; for fold of potentiation: MIC / MIC (+20 μM Of1); for MIC (+Of1): in the presence of 20 μM Of1
Experimental: Indoline alkaloid compounds were then screened for the ability to potentiate the activity of methicillin against MRSA. A multi-drug resistant MRSA strain (ATCC: BAA-44) was selected for the initial screening. […] To each well, 20 μM of each individual indoline alkaloid was added and the plates were incubated at 37° C. for 16 hrs.
The MRSA strain ATCC BAA-44 and the methicillin-sensitive S. aureus (MSSA) strain ATCC 25923 were used to determine the MIC values of various antimicrobial compounds in the presence of 20 μM Of1. The experiment was conducted similarly to the CLSI MIC determination described previously; however, MHB was supplemented with 40 μM Of1 prior to set up and inoculation. The final concentration of Of1 after inoculation with BAA-44 was 20 μM.

MRSA ATCC BAA-44 [5] = test: MIC, CLSI broth microdilution; format: cell-based, S. aureus; conditions: MRSA ATCC BAA-44, compound alone
[6] = Staphylococcus aureus, read-out: MIC

Compound	fold of potentiation (MRSA ATCC BAA-44 [4])	MIC (+Of1) (MRSA ATCC BAA-44 [4])	MIC (MRSA ATCC BAA-44 [5]; [6]) [µg/mL]	further results
2-(6-Bromo-4-methylidene-2,3,4,4a,9,9a-hexahydro-1H-carbazol-4a-yl)-N-(4-chlorobenzenesulfonyl)-S-(4-chlorophenyl)ethane-1-sulfonamido [Cpd 1h]	–	–	–	MRC meropenem (MRSA ATCC 33592 [1]): >32 µg/mL; MRC amox/clav (MRSA ATCC BAA-44 [2]; amoxicillin/clavulanic acid at 4/2 μg/ml): >32 µg/mL; MRC cefazolin (MRSA ATCC BAA-44 [2]; cefazolin at 8 μg/ml): >32 µg/mL; MRC methicillin (MRSA ATCC BAA-44 [2]; in presence of methicillin): >32 µg/mL
C=C1CCC[C@@H]2Nc3c(F)cc(Br)cc3[C@]12CCN (stereo in doubt) [Cpd 11b, 2-(6-Bromo-8-fluoro-4-methylidene-2,3,4,4a,9,9a-hexahydro-1H-carbazol-4a-yl)ethan-1-amine]	–	–	–	GI50 (HeLa cells): 16.2 µg/mL (≈ 49.8 µM)
C[C@@H](O)[C@H]1C(=O)N2C(C(=O)O)=C(S[C@@H]3CN[C@H](C(=O)N(C)C)C3)[C@H](C)[C@H]12 [meropenem]	16	0.25 µg/mL	4 (≈ 10.4 µM)	MIC (MRSA ATCC 33592 [3]): 16 µg/mL
COc1cccc(OC)c1C(=O)N[C@@H]1C(=O)N2[C@@H]1SC(C)(C)[C@@H]2C(=O)O [methicillin]	16	8 µg/mL	128 (≈ 336 µM)	–
Cc1onc(-c2ccccc2)c1C(=O)N[C@@H]1C(=O)N2[C@@H]1SC(C)(C)[C@@H]2C(=O)O [oxacillin]	–	0.5 µg/mL	64 (≈ 159 µM)	–
CN(C)[C@@H]1C(O)=C(C(N)=O)C(=O)[C@@]2(O)C(O)=C3C(=O)c4c(O)cccc4[C@@](C)(O)[C@H]3C[C@@H]12 [tetracycline]	1	64 µg/mL	64 (≈ 144 µM)	–
amoxicillin/clavulanate	8	4/2	–	MIC (MRSA ATCC BAA-44 [5]): 32/16
